Experimental data published in patent US7342033B2 (Vereniging Voor Christelijk Wetenschappelijk Onderwijs, priority 1999, dated 2008).

Tested on: multiple sclerosis patients
Experiment: Adverse events and tolerability in the same study
Assay type: in vivo, human
Description: We selected 9 women and 7 men (aged 30-66 years) with documented progression during the 24 months before inclusion, from a natural history study. Kurtzke's EDSS scores were between 3.0 (inclusive) and 7.5 (inclusive). All adverse events were documented; safety lab consisted of serum transaminases (monthly for 3 months and every 3 months thereafter) and hematology (CBC and differential every 6 months) after the start of treatment. The study was approved by the hospital ethics committee, and all patients gave informed consent.

## Nc1nc2ccc(OC(F)(F)F)cc2s1 [riluzole, (6-trifluoromethoxy)-2-benzothiazolamine)]
14 patients who took medication for over three months
  Medically severe adverse effects: not observed
Of 16 patients, riluzole 2×50 mg daily
  Patients who needed intermittent reduction in dosage of study drug: Five
Of 16 patients, headache in one, increase in spasticity in the other
  Patients who discontinued treatment because of side effects: Two
